Laboratory results from paper PMC5362750, “Discovery of Potent, Selective, and Orally Bioavailable Small-Molecule Modulators of the Mediator Complex-Associated Kinases CDK8 and CDK19” (Journal of Medicinal Chemistry, 2016).

Tests used:
In vivo mouse PK = conditions: female, NMRI, plasma; for Vd / clearance: iv, 0.2 mg/kg; for clearance: Cl, 0.2 mg/kg iv; for bioavailability: po, 0.5 mg/kg
[1] = Caco-2 Papp determination; conditions: human, Caco-2, pH 7.4
[2] = Thermodynamic solubility determination; assay type: physicochemical; conditions: phosphate buffer, pH 7.4, TFA salt, pH 7.4, 37 °C; read-out: Solubility Therm.

| SMILES | Vd (In vivo mouse PK) | clearance (In vivo mouse PK) | bioavailability (In vivo mouse PK) | Papp A→B at 2 h, 1 μM [1] | efflux ratio at 2 h, 1 μM [1] | solubility at 24 h [2] |
| --- | --- | --- | --- | --- | --- | --- |
| CN1c2ccc(-c3cncc(F)c3N3CCC4(CC3)CNC(=O)O4)cc2CS1(=O)=O [Compound 63, 8-(3-Fluoro-5-(1-methyl-2,2-dioxido-1,3-dihydrobenzo[c]isothiazol-5-yl)pyridin-4-yl)-1-oxa-3,8-diazaspiro[4.5]decan-2-one] | 2.67 L/kg | 87.5 mL/min/kg | 27% | 16 ×10⁻⁶ cm/s | 6.5 |  |
| Cn1cc(-c2ccc(-c3cncc(C(F)(F)F)c3N3CCC4(CC3)CNC(=O)O4)cc2)cn1 [Compound 72, 8-(3-(4-(1-Methyl-1H-pyrazol-4-yl)phenyl)-5-(trifluoromethyl)pyridin-4-yl)-1-oxa-3,8-diazaspiro[4.5]decan-2-one 2,2,2-Trifluoroacetate] | 2.3 L/kg | 30.3 mL/min/kg | 48% | 47.4 ×10⁻⁶ cm/s |  | 35 µg/mL |
| Cn1cc(-c2ccc(-c3cnc(N)c(Cl)c3N3CCC4(CCNC4=O)CC3)cc2)cn1 [Compound 85] | 0.74 L/kg | 11.2 mL/min/kg | 61% | 37 ×10⁻⁶ cm/s | 4.9 |  |
| CC(C)(O)Cn1cc(-c2ccc(-c3cnc(N)c(Cl)c3N3CCC4(CCNC4=O)CC3)cc2)cn1 [Compound 86, 8-(2-Amino-3-chloro-5-(4-(1-(2-hydroxy-2-methylpropyl)-1H-pyrazol-4-yl)phenyl)pyridin-4-yl)-2,8-diazaspiro[4.5]decan-1-one] | 1.22 L/kg | 17.8 mL/min/kg | 7% | 25.4 ×10⁻⁶ cm/s | 42.7 |  |
| CN1c2ccc(-c3cnc(N)c(Cl)c3N3CCC4(CCNC4=O)CC3)cc2CS1(=O)=O [Compound 88] |  |  |  | 19.3 ×10⁻⁶ cm/s | 5.8 |  |
| Cn1cc(-c2ccc(-c3cnc(N)c(Cl)c3N3CCC4(CC3)CNC(=O)O4)cc2)cn1 [Compound 89] | 1.4 L/kg | 22.5 mL/min/kg | 35% | 48.3 ×10⁻⁶ cm/s |  | 5 µg/mL |
| CN1c2ccc(-c3cnc(N)c(Cl)c3N3CCC4(CC3)CNC(=O)O4)cc2CS1(=O)=O [Compound 90] | 1.81 L/kg | 36 mL/min/kg | 9% | 10.3 ×10⁻⁶ cm/s |  | 2 µg/mL |
| Cn1cc(-c2ccc(-c3cnc(N)c(Cl)c3N3CCC4(CC3)NC(=O)NC4=O)cc2)cn1 [Compound 91] |  |  |  | 9.6 ×10⁻⁶ cm/s |  | < 1 µg/mL |
| CN1c2ccc(-c3cnc(N)c(F)c3N3CCC4(CCNC4=O)CC3)cc2CS1(=O)=O [Compound 92, 8-(2-Amino-3-fluoro-5-(1-methyl-2,2-dioxido-1,3-dihydrobenzo[c]isothiazol-5-yl)pyridin-4-yl)-2,8-diazaspiro[4.5]decan-1-one] | 0.86 L/kg | 21.3 mL/min/kg | 37% | 23.9 ×10⁻⁶ cm/s | 29.5 |  |
| CN1c2ccc(-c3cnc(N)c(F)c3N3CCC4(CC3)CNC(=O)O4)cc2CS1(=O)=O [Compound 93] |  |  |  | 4 ×10⁻⁶ cm/s | 81 |  |
| Cn1cc(-c2ccc(-c3cnc(N)c(C(F)(F)F)c3N3CCC4(CCNC4=O)CC3)cc2)cn1 [Compound 94] |  |  |  | 20.7 ×10⁻⁶ cm/s |  |  |
| Cn1cc(-c2ccc(-c3cnc(N)c(C(F)(F)F)c3N3CCC4(CC3)CNC(=O)O4)cc2)cn1 [Compound 95, 8-(2-Amino-5-(4-(1-methyl-1H-pyrazol-4-yl)phenyl)-3-(trifluoromethyl)pyridin-4-yl)-1-oxa-3,8-diazaspiro[4.5]decan-2-one 2,2,2-Trifluoroacetate] | 1.93 L/kg | 25 mL/min/kg | 42% | 29.1 ×10⁻⁶ cm/s |  | 8 µg/mL |
| CNc1n[nH]c2cc(-c3cncc(Cl)c3N3CCC4(CCNC4=O)CC3)ccc12 [Compound 100, 8-(3-Chloro-5-(3-(methylamino)-1H-indazol-6-yl)pyridin-4-yl)-2,8-diazaspiro[4.5]decan-1-one] |  |  |  | 28.8 ×10⁻⁶ cm/s |  |  |
| Cn1nc(N)c2ccc(-c3cncc(Cl)c3N3CCC4(CCNC4=O)CC3)cc21 [Compound 101, 8-(3-(3-Amino-1-methyl-1H-indazol-6-yl)-5-chloropyridin-4-yl)-2,8-diazaspiro[4.5]decan-1-one 2,2,2-Trifluoroacetate] |  |  |  | 39 ×10⁻⁶ cm/s |  |  |
| CN(C)c1nn(C)c2cc(-c3cncc(Cl)c3N3CCC4(CCNC4=O)CC3)ccc12 [Compound 102, 8-(3-Chloro-5-(3-(dimethylamino)-1-methyl-1H-indazol-6-yl)pyridin-4-yl)-2,8-diazaspiro[4.5]decan-1-one] |  |  |  | 45.9 ×10⁻⁶ cm/s |  |  |
| CN1CNC(=O)C12CCN(c1c(Cl)cncc1-c1ccc(-c3cnn(C)c3)cc1)CC2 [Compound 104] |  |  |  | 30.6 ×10⁻⁶ cm/s |  |  |
| CC(C)n1cc(-c2ccc(-c3cnc(N)c(Cl)c3N3CCC4(CCNC4=O)CC3)cc2)cn1 [Compound 108] |  |  |  | 37.4 ×10⁻⁶ cm/s |  |  |
| Cn1ncc2cc(-c3cnc(N)c(Cl)c3N3CCC4(CC3)CNC(=O)O4)ccc21 [Compound 110] |  |  |  | 33.4 ×10⁻⁶ cm/s |  |  |
